The source made the active and inactive calls. No rule for the calls is given here.
Tested on: CCRIS mutagenicity, Ames/micronucleus/aberration tests
Experiment: CCRIS mutagenicity studies
[1] = Test System: AMES SALMONELLA TYPHIMURIUM, Strain/Indicator: TA98, Metabolic Activation: NONE, Method: STANDARD PLATE
[2] = Test System: AMES SALMONELLA TYPHIMURIUM, Strain/Indicator: TA100, Metabolic Activation: NONE, Method: STANDARD PLATE
[3] = Test System: AMES SALMONELLA TYPHIMURIUM, Strain/Indicator: TA1537, Metabolic Activation: NONE, Method: STANDARD PLATE
[4] = Test System: AMES SALMONELLA TYPHIMURIUM, Strain/Indicator: TA1538, Metabolic Activation: NONE, Method: STANDARD PLATE
[5] = Test System: AMES SALMONELLA TYPHIMURIUM, Strain/Indicator: TA97, Metabolic Activation: HAMSTER, LIVER, S-9, AROCLOR 1254 (10 OR 30%), Method: PREINCUBATION
[6] = Test System: AMES SALMONELLA TYPHIMURIUM, Strain/Indicator: TA97, Metabolic Activation: NONE, Method: PREINCUBATION
[7] = Test System: AMES SALMONELLA TYPHIMURIUM, Strain/Indicator: TA97, Metabolic Activation: RAT, LIVER, S-9, AROCLOR 1254 (10 OR 30%), Method: PREINCUBATION
[8] = Test System: AMES SALMONELLA TYPHIMURIUM, Strain/Indicator: TA98, Metabolic Activation: HAMSTER, LIVER, S-9, AROCLOR 1254 (10 OR 30%), Method: PREINCUBATION
[9] = Test System: AMES SALMONELLA TYPHIMURIUM, Strain/Indicator: TA98, Metabolic Activation: NONE, Method: PREINCUBATION
[10] = Test System: AMES SALMONELLA TYPHIMURIUM, Strain/Indicator: TA98, Metabolic Activation: RAT, LIVER, S-9, AROCLOR 1254 (10 OR 30%), Method: PREINCUBATION
[11] = Test System: AMES SALMONELLA TYPHIMURIUM, Strain/Indicator: TA100, Metabolic Activation: HAMSTER, LIVER, S-9, AROCLOR 1254 (10 OR 30%), Method: PREINCUBATION
[12] = Test System: AMES SALMONELLA TYPHIMURIUM, Strain/Indicator: TA100, Metabolic Activation: NONE, Method: PREINCUBATION
[13] = Test System: AMES SALMONELLA TYPHIMURIUM, Strain/Indicator: TA100, Metabolic Activation: RAT, LIVER, S-9, AROCLOR 1254 (10 OR 30%), Method: PREINCUBATION
[14] = Test System: AMES SALMONELLA TYPHIMURIUM, Strain/Indicator: TA1535, Metabolic Activation: HAMSTER, LIVER, S-9, AROCLOR 1254 (10 OR 30%), Method: PREINCUBATION
[15] = Test System: AMES SALMONELLA TYPHIMURIUM, Strain/Indicator: TA1535, Metabolic Activation: NONE, Method: PREINCUBATION
[16] = Test System: AMES SALMONELLA TYPHIMURIUM, Strain/Indicator: TA1535, Metabolic Activation: RAT, LIVER, S-9, AROCLOR 1254 (10 OR 30%), Method: PREINCUBATION

Measured: mutagenic call

CC(C)c1cc(-c2ccccc2)cc(C(C)C)c1N
inactive: [1] inactive; negative | Test System: AMES SALMONELLA TYPHIMURIUM, Strain/Indicator: TA98, Metabolic Activation: RAT LIVER S-9, AROCLOR, Method: STANDARD PLATE inactive; negative | [2] inactive; negative | Test System: AMES SALMONELLA TYPHIMURIUM, Strain/Indicator: TA100, Metabolic Activation: RAT LIVER S-9, AROCLOR, Method: STANDARD PLATE inactive; negative

NC(=O)c1cccnc1
inactive: Test System: AMES SALMONELLA TYPHIMURIUM, Strain/Indicator: TA97A, Metabolic Activation: NONE, Method: PREINCUBATION inactive; negative | Test System: AMES SALMONELLA TYPHIMURIUM, Strain/Indicator: TA97A, Metabolic Activation: RAT, LIVER, S-9, AROCLOR 1254, Method: PREINCUBATION inactive; negative | Test System: AMES SALMONELLA TYPHIMURIUM, Strain/Indicator: TA102, Metabolic Activation: NONE, Method: PREINCUBATION inactive; negative | Test System: AMES SALMONELLA TYPHIMURIUM, Strain/Indicator: TA102, Metabolic Activation: RAT, LIVER, S-9, AROCLOR 1254, Method: PREINCUBATION inactive; negative

C#CCOCCn1cc[n+](C)c1/C=N/O
inactive: Test System: AMES SALMONELLA TYPHIMURIUM, Strain/Indicator: TA97, Metabolic Activation: NONE, Method: STANDARD PLATE inactive; negative | Test System: AMES SALMONELLA TYPHIMURIUM, Strain/Indicator: TA97, Metabolic Activation: S-9, Method: STANDARD PLATE inactive; negative | [2] inactive; negative | Test System: AMES SALMONELLA TYPHIMURIUM, Strain/Indicator: TA100, Metabolic Activation: S-9, Method: STANDARD PLATE inactive; negative | Test System: AMES SALMONELLA TYPHIMURIUM, Strain/Indicator: TA104, Metabolic Activation: NONE, Method: STANDARD PLATE inactive; negative | Test System: AMES SALMONELLA TYPHIMURIUM, Strain/Indicator: TA104, Metabolic Activation: S-9, Method: STANDARD PLATE inactive; negative | [3] inactive; negative | Test System: AMES SALMONELLA TYPHIMURIUM, Strain/Indicator: TA1537, Metabolic Activation: S-9, Method: STANDARD PLATE inactive; negative | [4] inactive; negative | Test System: AMES SALMONELLA TYPHIMURIUM, Strain/Indicator: TA1538, Metabolic Activation: S-9, Method: STANDARD PLATE inactive; negative

C=Cc1ccccc1Cl
inactive: [5] inactive; negative | [6] inactive; negative | [7] inactive; negative | [8] inactive; negative | [9] inactive; negative | [10] inactive; negative | [11] inactive; negative | [12] inactive; negative | [13] inactive; negative | [14] inactive; negative | [15] inactive; negative | [16] inactive; negative

[O]=[V](=[O])[OH]
inactive: Test System: CHINESE HAMSTER V-79, Strain/Indicator: V-79/6-THIOGUANINE, Metabolic Activation: MOUSE, LIVER, S-9 inactive; negative | Test System: E. COLI, Strain/Indicator: WP2 UVRA, Metabolic Activation: NONE, Method: SPOT TEST inactive; negative
active: Test System: AMES SALMONELLA TYPHIMURIUM, Strain/Indicator: TA100, Metabolic Activation: NONE, Method: FLUCTUATION TEST active; positive | Test System: AMES SALMONELLA TYPHIMURIUM, Strain/Indicator: TA1535, Metabolic Activation: NONE, Method: STANDARD PLATE (PH 7.8, MEDIUM WITH TRIMETAPHOSPHATE IONS) active; positive | Test System: CHINESE HAMSTER G12, Strain/Indicator: G12/6-THIOGUANINE, Metabolic Activation: NONE active; positive

c1ccc2c(c1)cc1c3c2ccc2cccc(c23)C2OC12 (configuration not stated)
active: [1] active; positive | Test System: AMES SALMONELLA TYPHIMURIUM, Strain/Indicator: TA98, Metabolic Activation: RAT, LIVER, S-9, KC500 OR PHENOBARBITAL, Method: LIQUID SUSPENSION active; positive | Test System: AMES SALMONELLA TYPHIMURIUM, Strain/Indicator: TA100, Metabolic Activation: MICROSOMAL EPOXIDE HYDROLASE, Method: PREINCUBATION active; positive | [12] active; positive | [2] active; positive | Test System: AMES SALMONELLA TYPHIMURIUM, Strain/Indicator: TA100, Metabolic Activation: RAT, LIVER, S-9, KC500 OR PHENOBARBITAL, Method: LIQUID SUSPENSION active; positive | [3] active; positive | [4] active; positive | Test System: CHINESE HAMSTER V-79, Strain/Indicator: V-79/6-THIOGUANINE, Metabolic Activation: NONE, Method: REPLATING active; positive | Test System: CHINESE HAMSTER V-79, Strain/Indicator: V-79/6-THIOGUANINE, Metabolic Activation: NONE, Method: STANDARD PLATE active; positive | Test System: CHINESE HAMSTER V-79, Strain/Indicator: V-79/8-AZAGUANINE, Metabolic Activation: NONE, Method: STANDARD PLATE active; positive | Test System: CHINESE HAMSTER V-79, Strain/Indicator: V-79/OUABAIN, Metabolic Activation: NONE, Method: STANDARD PLATE active; positive | Test System: E. COLI, Strain/Indicator: WP2UVRA, Metabolic Activation: NONE, Method: STANDARD PLATE active; positive | Test System: UDS HUMAN CELLS, Strain/Indicator: THY INCORP (NON-S-PHASE), Metabolic Activation: NONE, Method: LIQUID SCINTILLATION COUNTING active; positive
inactive: Test System: AMES SALMONELLA TYPHIMURIUM, Strain/Indicator: TA98, Metabolic Activation: NONE, Method: HOST-MEDIATED inactive; negative | Test System: AMES SALMONELLA TYPHIMURIUM, Strain/Indicator: TA100, Metabolic Activation: NONE, Method: HOST-MEDIATED inactive; negative | Test System: AMES SALMONELLA TYPHIMURIUM, Strain/Indicator: TA1538, Metabolic Activation: NONE, Method: HOST-MEDIATED inactive; negative

CCCCCc1cc(O)c2c(c1)OC(C)(C)[C@@H]1CCC(C)=C[C@@H]21
inactive: [5] inactive; negative | [6] inactive; negative | [7] inactive; negative | [8] inactive; negative | [9] inactive; negative | [10] inactive; negative | [11] inactive; negative | [12] inactive; negative | [13] inactive; negative | [14] inactive; negative | [15] inactive; negative | [16] inactive; negative

O=Cc1c2ccccc2cc2ccccc12
inactive: Test System: AMES SALMONELLA TYPHIMURIUM, Strain/Indicator: TA98, Metabolic Activation: RAT, LIVER, S-9, AROCLOR 1254, Method: STANDARD PLATE inactive; negative | [2] inactive; negative | Test System: AMES SALMONELLA TYPHIMURIUM, Strain/Indicator: TA100, Metabolic Activation: RAT, LIVER, S-9, AROCLOR 1254, Method: STANDARD PLATE inactive; negative
